Results reported in patent US10031125B2, “Diagnosis and treatment of invasive aspergillosis” (THE BRIGHAM AND WOMEN'S HOSPITAL, INC., priority 2012, dated 2018).
Starred links: 1 amine or outer side, 2 acyl side, 3 side chain; linkers in the order of their positions; H or OH if unused. Positions of bridges follow the written chain, without caps; N, C: chain ends. Non-standard residues stand in square brackets, D forms with d. Residues, ends and D or L forms follow the SMILES beside them. *: point of attachment. hTyr(3S-OH,4S-OH,3'-OSO3H) = N[C@H](C(=O)O)[C@H](O)[C@@H](O)c1ccc(O)c(OS(=O)(=O)O)c1; Orn(4R-OH,5R-OH) = O=C([C@H](C[C@@H](O)[C@@H](O)N[*:3])N[*:1])[*:2]; Pro(3S-OH,4S-Me) = C[C@H]1CN[C@H](C(=O)O)[C@H]1O; X1 = CCCCCOc1ccc(-c2cc(-c3ccc(C(=O)*)cc3)no2)cc1; Gln(3R-OH) = NC(=O)C[C@@H](O)[C@H](N)C(=O)O; Hyp = O=C(O)[C@@H]1C[C@@H](O)CN1

How the values were obtained:
[1] = tested on: A. terreus; settings: some isolates; Baddley et al., J. Clin. Microbiol. 2009; cited from earlier work
[2] = tested on: Aspergillus fumigatus; test: Antifungal exposure modulates the release of VOCs in A. fumigatus in vitro (headspace GC-MS); assay type: cell-based; settings: for change in key A. fumigatus VOC features at 24 hours: compared to matched control samples
Experimental: For each experiment, 10^4 conidia were inoculated into 5 mL of microbial media (either nutrient Yeast Extract Peptone Dextrose (YPD) broth, nutrient poor Aspergillus minimal media (Pontecorvo et al., Advan Genet 1953; 5:141-238), or under iron-starved, alkaline stress, or nitrogen-depleted conditions (McDonagh et al., PLoS Pathog 2008; 4:e1000154)) in 20 mL glass vials with an airtight crimp top incorporating a rubber septum. Cultures were incubated for 24-144 hours at 200 rpm and 37° C. and headspace gas was dynamically adsorbed, using argon carrier gas and an air sampling pump calibrated to 20 mL/minute, onto Markes thermal desorption traps containing tandem beds of Tenax TA (200 mg), Carbograph 1 TD (100 mg), and Carboxen 1003 (100 mg), optimized to retain VOCs of diverse size and polarity.
Headspace VOCs were also collected after exposure of a subset of fungal isolates to the antifungal drugs voriconazole, liposomal amphotericin B, and micafungin, each at a concentration of […].
VOCs were desorbed onto a dual GC-MS/DMS system (FIG. 1)—the eluent from the gas chromatograph was split between the MS, to allow identification of each compound, and the DMS, an extremely sensitive and selective gas detector that can be easily used as a point-of-care gas detection device, to determine the mobility pattern for each compound. The NIST MS Search 2.0 Library was used to identify VOCs in the total ion chromatogram (TIC) of the GC-MS data. Differences in spectral features of DMS output were visually distinguished between the positive ion spectra of A. fumigatus and A. terreus and principal component analysis (PCA) was used to evaluate the degree of class discrimination between these fungal species using algorithms in MATLAB (Version R2012a).
Whether exposure to antifungal drugs might modulate VOC release in Aspergillus fumigatus was assessed in vitro.

[3] = added to 48-hour hyphal cultures, after 24 hours, 1.0 mg/mL

SMILES | susceptibility of A. terreus isolates [1] | increase in some of the key A. fumigatus VOC features ([2]; added to 48-hour hyphal cultures, after 24 hours, compared to matched control samples without drug, 1.0 mg/mL) [fold] | change in key A. fumigatus VOC features at 24 hours [2, 3] | key A. fumigatus VOC features with longer incubation ([2]; longer duration of incubation and hyphal death)
C[C@@H]1[C@H](O)[C@@H](C)/C=C/C=C/C=C/C=C/C=C/C=C/C=C/[C@H](O[C@@H]2O[C@H](C)[C@@H](O)[C@H](N)[C@@H]2O)C[C@@H]2O[C@](O)(C[C@@H](O)C[C@@H](O)[C@H](O)CC[C@@H](O)C[C@@H](O)CC(=O)O[C@H]1C)C[C@H](O)[C@H]2C(=O)O [AMB, amphotericin B] | resistant | – | – | –
CCCCCOc1ccc(-c2cc(-c3ccc(C(=O)N[C@H]4C[C@@H](O)[C@@H](O)NC(=O)[C@@H]5[C@@H](O)[C@@H](C)CN5C(=O)[C@H]([C@H](O)CC(N)=O)NC(=O)[C@H]([C@H](O)[C@@H](O)c5ccc(O)c(OS(=O)(=O)O)c5)NC(=O)[C@@H]5C[C@@H](O)CN5C(=O)[C@H]([C@@H](C)O)NC4=O)cc3)no2)cc1 [micafungin] (X1-[Orn(4R-OH,5R-OH)]T[Hyp][hTyr(3S-OH,4S-OH,3'-OSO3H)][Gln(3R-OH)][Pro(3S-OH,4S-Me)]; lactam 1-C) | – | ≤ 17 | initial increase | attenuation
C[C@@H](c1ncncc1F)[C@](O)(Cn1cncn1)c1ccc(F)cc1F [voriconazole] | – | – | near-complete attenuation | –
